Assay [1] deals with Growth hormone secretagogue receptor type 1 (Homo sapiens, UniProt Q92847).
The target in assay [2] is T1, Muscarinic acetylcholine receptor M2 (Homo sapiens, UniProt P08172).
T1 sequence (P08172 whole entry): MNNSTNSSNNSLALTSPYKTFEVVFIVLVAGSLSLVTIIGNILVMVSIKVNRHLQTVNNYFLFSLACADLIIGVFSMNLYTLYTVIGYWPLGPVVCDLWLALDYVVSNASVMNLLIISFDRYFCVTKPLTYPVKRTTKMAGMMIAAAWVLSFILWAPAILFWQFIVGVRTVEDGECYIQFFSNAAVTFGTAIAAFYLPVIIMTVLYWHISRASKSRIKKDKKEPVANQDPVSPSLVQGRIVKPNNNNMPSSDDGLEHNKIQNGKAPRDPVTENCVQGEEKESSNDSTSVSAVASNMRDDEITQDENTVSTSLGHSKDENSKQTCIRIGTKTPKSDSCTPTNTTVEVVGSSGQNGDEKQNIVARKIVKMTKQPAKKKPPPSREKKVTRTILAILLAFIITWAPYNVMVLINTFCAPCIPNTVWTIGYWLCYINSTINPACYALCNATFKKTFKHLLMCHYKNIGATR
It is filed as functional, cell-based.

For assay [3], the target named is T2, Amine oxidase [flavin-containing] A (Homo sapiens, UniProt P21397).
T2 sequence (P21397 whole entry): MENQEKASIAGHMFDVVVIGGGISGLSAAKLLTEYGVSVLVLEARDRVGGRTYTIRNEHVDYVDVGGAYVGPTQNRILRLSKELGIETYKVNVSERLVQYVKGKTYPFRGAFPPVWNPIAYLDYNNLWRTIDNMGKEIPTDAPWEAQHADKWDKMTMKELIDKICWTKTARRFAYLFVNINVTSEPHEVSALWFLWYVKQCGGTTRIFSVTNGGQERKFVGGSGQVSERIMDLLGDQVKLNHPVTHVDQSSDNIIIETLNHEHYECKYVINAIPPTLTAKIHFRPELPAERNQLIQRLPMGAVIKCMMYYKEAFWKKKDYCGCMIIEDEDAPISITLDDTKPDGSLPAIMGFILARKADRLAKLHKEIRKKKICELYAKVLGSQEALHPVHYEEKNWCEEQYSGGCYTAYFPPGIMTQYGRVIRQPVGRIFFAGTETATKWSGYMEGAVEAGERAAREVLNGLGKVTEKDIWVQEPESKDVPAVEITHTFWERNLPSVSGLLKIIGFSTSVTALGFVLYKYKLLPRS
The format is functional.

The target in assay [4] is T3, 5-hydroxytryptamine receptor 1A (Homo sapiens, UniProt P08908).
T3 sequence (P08908 whole entry): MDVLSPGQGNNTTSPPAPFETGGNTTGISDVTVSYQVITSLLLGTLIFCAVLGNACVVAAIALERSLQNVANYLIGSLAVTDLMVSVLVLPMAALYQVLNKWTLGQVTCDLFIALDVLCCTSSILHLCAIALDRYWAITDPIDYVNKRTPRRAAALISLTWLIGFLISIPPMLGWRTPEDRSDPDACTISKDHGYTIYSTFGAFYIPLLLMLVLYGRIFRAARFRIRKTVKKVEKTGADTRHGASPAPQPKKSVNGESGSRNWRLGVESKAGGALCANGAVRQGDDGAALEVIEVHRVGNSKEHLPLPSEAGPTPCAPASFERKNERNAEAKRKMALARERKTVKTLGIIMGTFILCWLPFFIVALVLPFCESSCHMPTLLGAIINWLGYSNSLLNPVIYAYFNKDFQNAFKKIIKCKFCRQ
The format is functional, cell-based.

The target of assay [5] is T4, 5-hydroxytryptamine receptor 3A (Homo sapiens, UniProt P46098).
T4 sequence (P46098 whole entry): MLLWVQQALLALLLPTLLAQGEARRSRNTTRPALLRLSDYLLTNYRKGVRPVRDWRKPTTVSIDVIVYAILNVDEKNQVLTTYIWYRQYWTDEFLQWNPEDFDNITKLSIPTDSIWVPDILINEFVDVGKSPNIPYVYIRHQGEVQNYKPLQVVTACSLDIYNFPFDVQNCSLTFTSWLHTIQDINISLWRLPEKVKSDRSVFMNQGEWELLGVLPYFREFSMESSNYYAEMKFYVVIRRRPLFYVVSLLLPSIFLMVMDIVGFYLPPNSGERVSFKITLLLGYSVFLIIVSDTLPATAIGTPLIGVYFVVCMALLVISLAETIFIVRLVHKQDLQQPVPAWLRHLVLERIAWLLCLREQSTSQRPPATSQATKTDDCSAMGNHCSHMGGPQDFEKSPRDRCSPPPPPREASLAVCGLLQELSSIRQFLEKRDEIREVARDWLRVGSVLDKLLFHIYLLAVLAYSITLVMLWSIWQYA
The format is functional.

The target in another assay is Vasopressin V1a receptor (Homo sapiens, UniProt P37288).
Another assay concerns the target T5, Adenosine receptor A3 (Homo sapiens, UniProt P0DMS8).
T5 sequence (P0DMS8 whole entry): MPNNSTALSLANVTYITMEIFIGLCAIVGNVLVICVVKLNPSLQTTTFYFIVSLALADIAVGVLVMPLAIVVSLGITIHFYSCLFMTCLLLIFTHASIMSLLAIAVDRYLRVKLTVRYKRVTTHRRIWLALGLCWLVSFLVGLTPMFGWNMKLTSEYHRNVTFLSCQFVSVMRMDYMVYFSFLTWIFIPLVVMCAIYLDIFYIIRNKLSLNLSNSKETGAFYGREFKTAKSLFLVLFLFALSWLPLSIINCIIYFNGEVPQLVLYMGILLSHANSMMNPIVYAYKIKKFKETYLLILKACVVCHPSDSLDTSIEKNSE

Assay [6] addresses T6, Type-1 angiotensin II receptor (Homo sapiens, UniProt P30556).
T6 sequence (P30556 whole entry): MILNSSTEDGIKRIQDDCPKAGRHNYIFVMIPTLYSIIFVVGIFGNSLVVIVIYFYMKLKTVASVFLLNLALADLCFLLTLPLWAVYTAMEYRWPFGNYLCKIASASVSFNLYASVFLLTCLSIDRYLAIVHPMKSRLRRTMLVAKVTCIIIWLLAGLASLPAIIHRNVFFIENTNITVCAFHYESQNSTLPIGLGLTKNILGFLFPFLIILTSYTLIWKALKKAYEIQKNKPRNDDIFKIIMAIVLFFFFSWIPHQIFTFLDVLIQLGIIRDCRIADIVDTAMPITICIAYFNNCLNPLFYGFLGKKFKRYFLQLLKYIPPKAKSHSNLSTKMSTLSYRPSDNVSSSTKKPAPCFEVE

For assay [7], the target named is Delta-type opioid receptor (Homo sapiens, UniProt P41143).
The target of assay [8] is 3',5'-cyclic-AMP phosphodiesterase 4D (Homo sapiens, UniProt Q08499). It is filed as functional.
For assay [9], the target named is Gamma-aminobutyric acid receptor subunit alpha-1 (Rattus norvegicus, UniProt P62813). The format is functional.
Note: assay procedure not described here.

Chain of Growth hormone secretagogue receptor type 1 (Q92847 whole entry): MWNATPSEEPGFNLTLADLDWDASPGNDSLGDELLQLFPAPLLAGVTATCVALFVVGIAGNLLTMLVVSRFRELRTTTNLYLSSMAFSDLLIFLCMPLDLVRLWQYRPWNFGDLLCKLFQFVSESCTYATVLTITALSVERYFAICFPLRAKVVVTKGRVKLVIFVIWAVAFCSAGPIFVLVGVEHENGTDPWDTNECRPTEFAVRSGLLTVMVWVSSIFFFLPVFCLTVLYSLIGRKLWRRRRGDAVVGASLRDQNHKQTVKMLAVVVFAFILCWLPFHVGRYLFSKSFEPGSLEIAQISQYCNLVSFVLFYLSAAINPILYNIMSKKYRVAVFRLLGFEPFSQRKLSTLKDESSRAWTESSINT
Chain of 3',5'-cyclic-AMP phosphodiesterase 4D (Q08499 whole entry): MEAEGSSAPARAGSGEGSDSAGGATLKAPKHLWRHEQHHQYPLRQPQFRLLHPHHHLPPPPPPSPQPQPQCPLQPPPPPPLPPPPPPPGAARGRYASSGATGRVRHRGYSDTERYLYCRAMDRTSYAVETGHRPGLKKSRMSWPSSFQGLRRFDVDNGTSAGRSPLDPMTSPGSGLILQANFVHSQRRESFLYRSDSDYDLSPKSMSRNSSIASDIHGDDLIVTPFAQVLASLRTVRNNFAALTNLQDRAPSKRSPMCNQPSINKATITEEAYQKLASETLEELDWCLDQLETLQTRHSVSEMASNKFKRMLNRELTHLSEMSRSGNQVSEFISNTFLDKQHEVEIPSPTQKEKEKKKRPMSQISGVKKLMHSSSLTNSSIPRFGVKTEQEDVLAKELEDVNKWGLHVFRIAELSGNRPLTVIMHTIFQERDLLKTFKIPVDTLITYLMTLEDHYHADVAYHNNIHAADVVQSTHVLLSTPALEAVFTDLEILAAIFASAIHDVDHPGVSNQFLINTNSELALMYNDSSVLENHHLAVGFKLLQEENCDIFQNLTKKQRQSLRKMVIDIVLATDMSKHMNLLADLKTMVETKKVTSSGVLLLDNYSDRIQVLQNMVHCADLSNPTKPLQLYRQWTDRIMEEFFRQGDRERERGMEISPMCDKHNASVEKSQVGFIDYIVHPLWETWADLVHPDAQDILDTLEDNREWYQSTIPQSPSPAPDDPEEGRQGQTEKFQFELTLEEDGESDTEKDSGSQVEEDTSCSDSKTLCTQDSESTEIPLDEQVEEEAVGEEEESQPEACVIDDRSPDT
Chain of Delta-type opioid receptor (P41143 whole entry): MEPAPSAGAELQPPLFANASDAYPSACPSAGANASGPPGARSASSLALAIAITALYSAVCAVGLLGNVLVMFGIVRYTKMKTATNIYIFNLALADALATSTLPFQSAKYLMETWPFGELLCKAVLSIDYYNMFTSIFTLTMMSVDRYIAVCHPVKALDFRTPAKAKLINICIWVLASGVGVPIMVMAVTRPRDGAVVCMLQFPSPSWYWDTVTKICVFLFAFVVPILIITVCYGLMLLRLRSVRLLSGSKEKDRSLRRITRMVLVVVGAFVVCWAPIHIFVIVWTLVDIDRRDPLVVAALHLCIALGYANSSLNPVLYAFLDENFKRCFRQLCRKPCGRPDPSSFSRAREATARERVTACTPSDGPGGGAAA
Chain of Vasopressin V1a receptor (P37288 whole entry): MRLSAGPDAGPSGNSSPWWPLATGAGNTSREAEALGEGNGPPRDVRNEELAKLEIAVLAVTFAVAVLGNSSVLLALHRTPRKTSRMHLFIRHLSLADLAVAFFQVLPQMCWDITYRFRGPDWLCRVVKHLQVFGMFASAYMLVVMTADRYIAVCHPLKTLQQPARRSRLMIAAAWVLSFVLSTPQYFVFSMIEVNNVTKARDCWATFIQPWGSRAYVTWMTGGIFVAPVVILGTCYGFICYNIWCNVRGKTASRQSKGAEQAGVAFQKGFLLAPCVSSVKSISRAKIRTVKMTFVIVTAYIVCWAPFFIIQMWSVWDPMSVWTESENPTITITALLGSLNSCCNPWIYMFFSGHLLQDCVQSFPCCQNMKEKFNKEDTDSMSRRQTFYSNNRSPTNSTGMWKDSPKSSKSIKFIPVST
Chain of Gamma-aminobutyric acid receptor subunit alpha-1 (P62813 whole entry): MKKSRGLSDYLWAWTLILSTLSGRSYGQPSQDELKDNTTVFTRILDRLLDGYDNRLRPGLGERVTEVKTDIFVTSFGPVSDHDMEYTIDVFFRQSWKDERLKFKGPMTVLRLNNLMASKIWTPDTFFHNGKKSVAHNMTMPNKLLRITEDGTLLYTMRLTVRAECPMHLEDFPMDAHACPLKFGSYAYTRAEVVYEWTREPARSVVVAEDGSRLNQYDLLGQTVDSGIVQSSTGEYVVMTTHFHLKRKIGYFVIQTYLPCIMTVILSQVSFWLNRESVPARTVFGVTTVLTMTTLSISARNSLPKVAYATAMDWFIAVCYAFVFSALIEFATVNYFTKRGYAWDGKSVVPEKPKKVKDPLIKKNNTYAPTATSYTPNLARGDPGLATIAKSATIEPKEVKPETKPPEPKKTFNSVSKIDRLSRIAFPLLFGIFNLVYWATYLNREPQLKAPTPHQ

One may read the AC50 as the midpoint of the concentration-response curve, whichever way the signal moves. Read a high AC50 as weaker potency. `Cc1ccc(-c2cc(C(F)(F)F)nn2-c2ccc(S(N)(=O)=O)cc2)cc1` [CELECOXIB]: the AC50 in assay [1] is over 10 µM; in assay [2] it was over 10 µM; in [3], over 10 µM; in [4] it was over 10 µM; in assay [5], over 30 µM; at Vasopressin V1a receptor, over 30 µM. In addition, the AC50 was 9.14 µM on Adenosine receptor A3; over 10 µM in assay [6]; over 30 µM in assay [7]; 20 µM in assay [8]; over 10 µM in assay [9].
Take `NCC(CC(=O)O)c1ccc(Cl)cc1` (stereo not given) [BACLOFEN]: the concentration at half-maximal activity (AC50) (in assay [1]; in assay [2]; in assay [3]; in assay [4]; in assay [5]; at Vasopressin V1a receptor) was over 30 µM each time. Moreover, the concentration at half-maximal activity (AC50) was 4.2 µM on Adenosine receptor A3; over 30 µM in [6]; over 30 µM in assay [7]; over 30 µM in [8]; over 30 µM in [9].
Turning to `Nc1nc(NC2CC2)c2ncn([C@H]3C=C[C@@H](CO)C3)c2n1` [ABACAVIR], the AC50 (in assay [1]; in assay [2]; in [3]; in assay [4]; in assay [5]; at Vasopressin V1a receptor) was over 30 µM throughout. Further, the concentration at half-maximal activity (AC50) at Adenosine receptor A3 was over 30 µM; in assay [6], over 30 µM; in [7], over 30 µM; in [8], 10 µM; in [9], over 30 µM.
As for `CNC1Cc2ccccc2N(C)c2ccccc21` (stereo not given) [METAPRAMINE], the AC50 was over 30 µM in [1]; over 30 µM in [2]; over 30 µM in [3]; over 10 µM in [4]; over 30 µM in assay [5]; over 30 µM on Vasopressin V1a receptor. For the same molecule, the AC50 (at Adenosine receptor A3; in assay [6]; in [7]; in assay [8]; in [9]) was over 30 µM throughout.
Take `CCC(C)n1ncn(-c2ccc(N3CCN(c4ccc(OCC5COC(Cn6cncn6)(c6ccc(Cl)cc6Cl)O5)cc4)CC3)cc2)c1=O` (stereo not given) [ITRACONAZOLE]: the AC50 (in [1]; in [2]; in [3]; in [4]; in assay [5]; at Vasopressin V1a receptor) was over 30 µM each time. For the same molecule, the AC50 is over 30 µM on Adenosine receptor A3; over 30 µM in [6]; over 30 µM in [7]; 18 µM in assay [8]; over 30 µM in [9].
`Cc1cn([C@H]2C[C@H](N=[N+]=[N-])[C@@H](CO)O2)c(=O)[nH]c1=O` [ZIDOVUDINE]: the concentration at half-maximal activity (AC50) in [1] is over 30 µM; in [2] it was over 10 µM; in [3], over 10 µM; in [4], over 10 µM; in [5], over 30 µM; at Vasopressin V1a receptor, over 10 µM. Further, the AC50 at Adenosine receptor A3 is over 30 µM; in [6], over 30 µM; in [7], over 30 µM; in assay [8], over 30 µM; in assay [9], over 10 µM.
In the case of `CS(=O)(=O)c1ccc(C2=C(c3ccccc3)C(=O)OC2)cc1` [ROFECOXIB], the concentration at half-maximal activity (AC50) in [1] is over 30 µM; in assay [2], over 30 µM; in assay [3], over 10 µM; in assay [4], over 30 µM; in [5], over 10 µM; at Vasopressin V1a receptor it was over 10 µM. Besides, the AC50 is over 30 µM on Adenosine receptor A3; over 30 µM in [6]; over 10 µM in assay [7]; over 30 µM in assay [8]; 4.7 µM in assay [9].
For `CN(C)CCC=C1c2ccccc2C(C)(C)c2ccccc21`, the concentration at half-maximal activity (AC50) in assay [1] is 22 µM; in assay [2], 0.25 µM; in assay [3] it was over 30 µM; in [4], 26 µM; in [5] it was 4.4 µM; on Vasopressin V1a receptor it was over 30 µM. The AC50 (on Adenosine receptor A3; in [6]; in [7]; in assay [8]; in assay [9]) was over 30 µM throughout.
For the molecule `CC(C)C[C@H]1C(=O)N2CCC[C@H]2[C@]2(O)O[C@](NC(=O)[C@@H]3C=C4c5cccc6[nH]c(Br)c(c56)C[C@H]4N(C)C3)(C(C)C)C(=O)N12` [BROMOCRIPTINE], the concentration at half-maximal activity (AC50) was 25 µM in [1]; over 30 µM in [2]; over 30 µM in assay [3]; 3.1 µM in assay [4]; over 30 µM in assay [5]; over 30 µM on Vasopressin V1a receptor. The half-maximal activity concentration (AC50) is 6.81 µM on Adenosine receptor A3; over 30 µM in assay [6]; over 30 µM in assay [7]; 5.5 µM in assay [8]; over 30 µM in assay [9].
Turning to `C[C@@H](O)[C@H]1C(=O)N2C(C(=O)O)=C(S[C@@H]3CN[C@H](C(=O)N(C)C)C3)[C@H](C)[C@H]12` [MEROPENEM], the half-maximal activity concentration (AC50) (in assay [1]; in assay [2]; in [3]; in assay [4]; in [5]; on Vasopressin V1a receptor) was over 300 µM each time. Further, the AC50 is over 300 µM at Adenosine receptor A3; over 300 µM in [6]; over 300 µM in assay [7]; over 300 µM in assay [8]; over 10 µM in [9].

These data come from ChEMBL document CHEMBL5291721, “A preclinical secondary pharmacology resource illuminates target-adverse drug reaction associations of marketed drugs” (Nat Commun, 2023).
